The record followed here is ChEMBL document CHEMBL1201862, “PubChem BioAssay data set” (2004).

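All cell lines were grown in 96-well plates and treated with compound for 48 hours. GI50: concentration for 50% inhibition of growth.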 Activity calls are given as the source filed them. Cut-off read from the data, not from the text of the source: active = GI50 up to about 1.1 µM and inactive = higher.

Among the test systems are A498; A549; ACHN; CCRF-CEM; EKVX; IGROV-1; M14; Malme-3M; NCI-H522; OVCAR-3; SK-MEL-28; SK-MEL-5; SK-OV-3; SN12C; SNB-19; SNB-75; TK-10; UACC-257.
Common to all, as to assay: NCI tumour cell line growth inhibition, 48 h

Regarding `CC[P+](C)(Cc1ccccc1)c1ccccc1` (stereo unspecified), the GI50 in the experiment on A498, in the experiment on A549, in the experiment with ACHN, with CCRF-CEM, in the experiment with EKVX and in the experiment with IGROV-1 was > 100 µM (inactive) each time. Besides, the GI50 with M14 was > 100 µM (inactive); in the experiment on Malme-3M, 91.8 µM (inactive); in the experiment on NCI-H522 it was 44.2 µM (inactive); in the experiment on OVCAR-3, 58.5 µM (inactive); in the experiment with SK-MEL-28, > 100 µM (inactive); in the experiment with SK-MEL-5 it was 51.3 µM (inactive). The GI50 in the experiment with SK-OV-3, in the experiment with SN12C, in the experiment with SNB-19, in the experiment on SNB-75, with TK-10 and with UACC-257 was > 100 µM (inactive) each time.

As for `CC(=O)c1cccc(C)c1C(=O)O`, the GI50 in the experiment on A498, with A549, in the experiment with ACHN, in the experiment with CCRF-CEM, with EKVX and in the experiment on IGROV-1 was > 100 µM (inactive) in each case. Moreover, the GI50 with M14, with Malme-3M, with NCI-H522, with OVCAR-3, in the experiment on SK-MEL-28 and with SK-MEL-5 was > 100 µM (inactive) each time. The GI50 in the experiment with SK-OV-3, with SN12C, with SNB-19, in the experiment with SNB-75, with TK-10 and in the experiment on UACC-257 was > 100 µM (inactive) each time.

In the case of `CC(C)/C(Cl)=N\OC(=O)Nc1cccc(Cl)c1`, the GI50 with A498 was 17.4 µM (inactive); in the experiment on A549 it was 18.4 µM (inactive); with ACHN, 6.22 µM (inactive); with CCRF-CEM, 1.67 µM (inactive); in the experiment with EKVX, 16.3 µM (inactive); in the experiment on IGROV-1 it was 18.6 µM (inactive). For the same molecule, the GI50 in the experiment on M14 was 0.305 µM (active); in the experiment with Malme-3M it was 11.6 µM (inactive); with NCI-H522, 1.66 µM (inactive); in the experiment on OVCAR-3, 3.28 µM (inactive); with SK-MEL-28 it was 16.9 µM (inactive); with SK-MEL-5, 13.5 µM (inactive). For the same molecule, the GI50 is > 43.9 µM (inactive) with SK-OV-3; 16.1 µM (inactive) with SN12C; > 100 µM (inactive) in the experiment on SNB-19; 13.9 µM (inactive) with SNB-75; 15.3 µM (inactive) in the experiment on TK-10; 13.6 µM (inactive) in the experiment on UACC-257.

Take `O=C1C=C(c2ccccc2)NC1(c1ccccc1)c1cc(-c2ccccc2)[nH]c1-c1ccccc1` (stereo unspecified): the GI50 in the experiment with A498, in the experiment on A549, in the experiment on ACHN, in the experiment with CCRF-CEM, in the experiment on EKVX and with IGROV-1 was > 100 µM (inactive) each time. In addition, the GI50 in the experiment on M14, with OVCAR-3, with SK-MEL-28, in the experiment on SK-OV-3, with SN12C and in the experiment with SNB-19 was > 100 µM (inactive) throughout. Also, the GI50 with SNB-75 and in the experiment with UACC-257 was > 100 µM (inactive) in each case.

As for `CCC1=C(CC)C1(C#N)[N+](=O)[O-]`, the GI50 in the experiment on A498, in the experiment on A549, in the experiment with ACHN, in the experiment on CCRF-CEM, in the experiment on EKVX and in the experiment with IGROV-1 was > 100 µM (inactive) in each case. Moreover, the GI50 with M14, in the experiment with Malme-3M, with NCI-H522, in the experiment with OVCAR-3, in the experiment with SK-MEL-5 and in the experiment on SK-OV-3 was > 100 µM (inactive) throughout. The GI50 in the experiment on SN12C, in the experiment on SNB-19, with TK-10 and in the experiment on UACC-257 was > 100 µM (inactive) throughout.

On to `O=C(CC/C(CC(=O)c1ccc(Cl)cc1)=N\O)Nc1cccc(Cl)c1`, for which the GI50 in the experiment with A498, in the experiment with A549, in the experiment on ACHN, in the experiment with CCRF-CEM, with EKVX and in the experiment with IGROV-1 was > 100 µM (inactive) throughout. In addition, the GI50 in the experiment on M14, in the experiment with Malme-3M, in the experiment on OVCAR-3, in the experiment with SK-MEL-28, in the experiment with SK-MEL-5 and in the experiment on SK-OV-3 was > 100 µM (inactive) throughout. For the same molecule, the GI50 in the experiment with SN12C was > 100 µM (inactive); in the experiment on SNB-19, > 100 µM (inactive); in the experiment on SNB-75 it was 80.7 µM (inactive); in the experiment on TK-10, > 100 µM (inactive); in the experiment with UACC-257, > 100 µM (inactive).

Consider `CC1(C)Cc2c(oc3ncnc(N)c23)CS1`, for which the GI50 with A549, in the experiment on ACHN, with CCRF-CEM, with EKVX, with IGROV-1 and in the experiment on M14 was > 100 µM (inactive) throughout. In addition, the GI50 in the experiment on Malme-3M, in the experiment on NCI-H522, in the experiment with OVCAR-3, with SK-MEL-5, in the experiment with SK-OV-3 and with SN12C was > 100 µM (inactive) throughout. The GI50 with SNB-19, in the experiment on SNB-75 and in the experiment on UACC-257 was > 100 µM (inactive) throughout.

Consider `Oc1nnc2c(-c3ccccc3)n[nH]c2n1`, for which the GI50 in the experiment with A498 is > 100 µM (inactive); in the experiment on A549, 14.2 µM (inactive); with ACHN, > 100 µM (inactive); in the experiment with CCRF-CEM it was > 100 µM (inactive); in the experiment with EKVX it was 16.4 µM (inactive); in the experiment with IGROV-1, 94.4 µM (inactive). Further, the GI50 with M14, in the experiment with NCI-H522, in the experiment on OVCAR-3, in the experiment with SK-MEL-28, in the experiment with SN12C and with SNB-19 was > 100 µM (inactive) throughout. For the same molecule, the GI50 in the experiment on TK-10 and in the experiment with UACC-257 was > 100 µM (inactive) throughout.

Turning to `OC(c1ccccc1Br)(c1ccccc1Br)C(F)(F)F`, the GI50 is 30.1 µM (inactive) in the experiment on A498; 34.1 µM (inactive) with A549; 20.1 µM (inactive) with ACHN; 33.9 µM (inactive) in the experiment with EKVX; 40.4 µM (inactive) with IGROV-1; 34.7 µM (inactive) in the experiment with M14. Besides, the GI50 is 24 µM (inactive) in the experiment on Malme-3M; 11.6 µM (inactive) with NCI-H522; 26.9 µM (inactive) in the experiment with OVCAR-3; 27.7 µM (inactive) with SK-MEL-28; 36.5 µM (inactive) in the experiment with SK-OV-3; 19.1 µM (inactive) in the experiment with SN12C. In addition, the GI50 was > 10 µM (inactive) in the experiment with SNB-19, 33 µM (inactive) in the experiment on SNB-75, 52.1 µM (inactive) in the experiment on TK-10 and 37.8 µM (inactive) with UACC-257.

Turning to `OCC(O)C(OC1OC(CO)C(O)C(O)C1O)c1nn(-c2ccc(Cl)cc2)c2nc3cc(Cl)ccc3nc12` (stereo unspecified), the GI50 in the experiment with A498, in the experiment with ACHN, in the experiment on CCRF-CEM, with EKVX, with M14 and in the experiment with Malme-3M was > 100 µM (inactive) each time. The GI50 in the experiment on NCI-H522, with OVCAR-3, with SK-MEL-28, in the experiment on SK-OV-3, in the experiment with SN12C and in the experiment on SNB-19 was > 100 µM (inactive) in each case. For the same molecule, the GI50 in the experiment with SNB-75, in the experiment on TK-10 and with UACC-257 was > 100 µM (inactive) each time.

As to `CCOC(C)OCC#CCCBr` (stereo unspecified), the GI50 with A549 was > 100 µM (inactive); in the experiment with ACHN, > 100 µM (inactive); with CCRF-CEM, 37.1 µM (inactive); in the experiment with EKVX it was > 100 µM (inactive); with IGROV-1, > 100 µM (inactive); with M14 it was > 100 µM (inactive). The GI50 with Malme-3M, with OVCAR-3, with SK-MEL-5, in the experiment on SK-OV-3, with SN12C and in the experiment with SNB-19 was > 100 µM (inactive) each time. Besides, the GI50 is 55.3 µM (inactive) with SNB-75, > 100 µM (inactive) in the experiment on TK-10 and > 100 µM (inactive) in the experiment on UACC-257.

Take `CC(=O)O[C@]12CCCCCC1C1(O)C(O)CCCCC12` (stereo partly specified): the GI50 in the experiment with A549, with ACHN, in the experiment on CCRF-CEM, in the experiment on EKVX, in the experiment on M14 and in the experiment on Malme-3M was > 100 µM (inactive) throughout. In addition, the GI50 with NCI-H522, in the experiment with SK-MEL-28, in the experiment with SK-MEL-5, in the experiment with SK-OV-3, in the experiment on SN12C and in the experiment on SNB-19 was > 100 µM (inactive) each time. Further, the GI50 in the experiment on SNB-75, in the experiment on TK-10 and in the experiment with UACC-257 was > 100 µM (inactive) each time.
